Data reported in PMC7156458, “Synthetic biology based construction of biological activity-related library of fungal decalin-containing diterpenoid pyrones” (Nature Communications, 2020).
Read-outs that look alike come from different tables or passages of the source.

Tests used:
Type in all cases: cell-based
DL1 cells = test: cytotoxicity in Drosophila DL1 cells; settings: DL1 cells; for IC50: Drosophila melanogaster, cytotoxicity
Method: (§1) We screened the DDPs on the Drosophila assay system for cytotoxicity, inhibitory activity of innate immune signalling and insecticidal activity. The cytotoxicity of the DDPs was evaluated using two cell lines, embryonic macrophage-derived DL1 cells[58]–[60] and larval blood cell-derived l(2)mbn cells, and their IC50 values are listed in Supplementary Table 23.

[1] = cytotoxicity in Drosophila DL1 cells; settings: Drosophila, DL1 cells (embryonic macrophage-derived), DL1 cells
Method: as §1

[2] = system: human immunodeficiency virus-1 (HIV-1); test: anti-HIV MAGI assay; settings: Human immunodeficiency virus 1, MAGI, anti-HIV
Source text: (§2) We examined the inhibitory activities of DDPs against various species of bacteria (both gram-negative and gram-positive bacteria), fungi and viruses. […] In contrast, preliminary screening of the DDPs for anti-viral agents with hepatitis B virus (HBV), measles virus (MV), Epstein-Barr virus (EBV), herpes simplex virus (HSV) and human immunodeficiency virus-1 (HIV-1) indicated their selective inhibition of HIV.

[3] = system: hepatitis B virus (HBV), measles virus (MV), Epstein-Barr virus (EBV), herpes simplex virus (HSV); test: preliminary anti-viral screening (other viruses)
Source text: as §2

[4] = average of two replicates, read-out: IC50 Average
[5] = replicate 1, read-out: IC50 (1)
[6] = replicate 2, read-out: IC50 (2)
[7] = replicate 1, relative to DMSO 1%, read-out: % viability, viability 1
[8] = replicate 2, relative to DMSO 1%, read-out: % viability, viability 2
[9] = average of numeric determinations, read-out: Avg. EC50

| Structure (SMILES) | Luminescence Raw1 (DL1 cells; 0.04 µM, replicate 1) | Luminescence Raw2 (DL1 cells; 0.04 µM, replicate 2) | Luminescence Raw1 (DL1 cells; 0.2 µM, replicate 1) | Luminescence Raw2 (DL1 cells; 0.2 µM, replicate 2) | Luminescence Raw1 (DL1 cells; 1 µM, replicate 1) | Luminescence Raw2 (DL1 cells; 1 µM, replicate 2) | Luminescence Raw1 (DL1 cells; 4 µM, replicate 1) | Luminescence Raw2 (DL1 cells; 4 µM, replicate 2) | Luminescence Raw1 (DL1 cells; 10 µM, replicate 1) | Luminescence Raw2 (DL1 cells; 10 µM, replicate 2) | Luminescence Raw1 (DL1 cells; 20 µM, replicate 1) | Luminescence Raw2 (DL1 cells; 20 µM, replicate 2) | IC50 (DL1 cells; [4]) | IC50 (DL1 cells; average±SEM, read-out: IC50) | IC50 (DL1 cells; [5]) | IC50 (DL1 cells; [6]) | viability at 0.04 µM [1, 7] | viability at 0.04 µM [1, 8] | viability at 0.2 µM [1, 7] | viability at 0.2 µM [1, 8] | also measured |
| --- | --- | --- | --- | --- | --- | --- | --- | --- | --- | --- | --- | --- | --- | --- | --- | --- | --- | --- | --- | --- | --- |
| C=C1CC[C@H]2[C@]3(C)C[C@H](C=C(C)C)O[C@H]3CC[C@]2(C)[C@@H]1Cc1c(OC)oc(C)c(C)c1=O [Compound 24] | 2516748 | 2332079 | 850222 | 975712 | 178460 | 208026 | 158268 | 147451 | 159710 | 170888 | 153581 | 168364 | 242 nM | 240 ± 10 nM | 237 nM | 248 nM | 122% | 113% | 41.3% | 47.4% | viability at 1 µM [1, 7]: 8.66%; viability at 1 µM [1, 8]: 10.1%; viability at 4 µM [1, 7]: 7.68%; viability at 4 µM [1, 8]: 7.16%; viability at 10 µM [1, 7]: 7.75%; viability at 10 µM [1, 8]: 8.3%; viability at 20 µM [1, 7]: 7.46%; viability at 20 µM [1, 8]: 8.17%; EC50 ([2]; MAGI assay, read-out: EC50): < 200 nM; effect on other viruses [3]: without affecting other viruses |
| C=C1CCC2C(C)(CCC=C(C)C)C(=O)CCC2(C)C1Cc1c(O)c(C)c(C)oc1=O (centres unmarked) [Compound 8] | 2594102 | 2999528 | 2536752 | 2851638 | 1767451 | 1791254 | 250019 | 282109 | 313118 | 331147 | 296893 | 291484 | 5020 nM | 5020 ± 220 nM | 4800 nM | 5240 nM | 189% | 219% | 185% | 208% | viability at 1 µM [1, 7]: 129%; viability at 1 µM [1, 8]: 131%; viability at 4 µM [1, 7]: 18.2%; viability at 4 µM [1, 8]: 20.6%; viability at 10 µM [1, 7]: 22.8%; viability at 10 µM [1, 8]: 24.1%; viability at 20 µM [1, 7]: 21.6%; viability at 20 µM [1, 8]: 21.3%; EC50 [2, 9]: 23.2 nM |
| C=C1CC[C@@H]2[C@](C)(CC[C@H]3O[C@H](C=C(C)C)C[C@@]23C)[C@@H]1Cc1c(O)c(C)c(C)oc1=O [Compound 10, higginsianin A] | 1703467 | 1762974 | 745666 | 721146 | 148910 | 134127 | 98071 | 133046 | 156482 | 143141 | 118984 | 119705 | 133 nM | 130 ± 10 nM | 132 nM | 133 nM | 82.7% | 85.6% | 36.2% | 35% | viability at 1 µM [1, 7]: 7.23%; viability at 1 µM [1, 8]: 6.51%; viability at 4 µM [1, 7]: 4.76%; viability at 4 µM [1, 8]: 6.46%; viability at 10 µM [1, 7]: 7.6%; viability at 10 µM [1, 8]: 6.95%; viability at 20 µM [1, 7]: 5.78%; viability at 20 µM [1, 8]: 5.81%; EC50 ([2]; MAGI assay, read-out: EC50): < 200 nM; EC50 [2, 9]: 53.2 nM; effect on other viruses [3]: without affecting other viruses |
| C=C1CC[C@H]2[C@]3(C)C[C@H](C=C(C)C)O[C@H]3CC[C@]2(C)[C@@H]1Cc1c(O)c(C)c(C)oc1=O [Compound 6, subglutinol B] | 2426216 | 2551013 | 492518 | 1138346 | 157908 | 170527 | 161874 | 145288 | 147812 | 152139 | 149254 | 136274 | 234 nM | 230 ± 70 nM | 166 nM | 303 nM | 118% | 124% | 23.9% | 55.3% | viability at 1 µM [1, 7]: 7.67%; viability at 1 µM [1, 8]: 8.28%; viability at 4 µM [1, 7]: 7.86%; viability at 4 µM [1, 8]: 7.05%; viability at 10 µM [1, 7]: 7.18%; viability at 10 µM [1, 8]: 7.39%; viability at 20 µM [1, 7]: 7.25%; viability at 20 µM [1, 8]: 6.62%; EC50 [2, 9]: 757 nM |
